A short description of the assay: Tritiated Sulfonamide Binding to Membranes: isolated from cells that heterologously express hNav1.7 and the β1 subunit Preparation of membranes containing recombinantly expressed sodium channels: Frozen recombinant cell pellets were thawed on ice and diluted to 4 times the cell pellet weight with ice cold 50 mM Tris HCl, pH 7.4 buffer. The cell suspensions were homogenized on ice using a motorized glass dounce homogeniser. Homogenates were further diluted 8.4 times with ice cold 50 mM Tris HCl, pH 7.4 buffer and then centrifuged at 200×g at 4° C. for 15 min. The supernatants were collected and centrifuged at 10000×g at 4° C. for 50 min. The pellets were then re-suspended in 100 mM NaCl, 20 mM Tris HCl, pH 7.4 buffer containing 1% v/v protease inhibitors (Calbiochem) and re-homogenized on ice. The homogenized membranes were then processed through a syringe equipped with a 26 gauge needle. Protein concentrations were determined by Bradford Assay and the membranes were stored at −80° C.Radioligand Binding Studies:Saturation experiments. A representative compound of formula (I) having a methyl group was tritiated. Three tritiums were incorporated in place of methyl hydrogens to generate [3H]compound. Binding of this radioligand was preformed in 5 mL borosilicate glass test tubes at room temperature. Binding was initiated by adding membranes to increasing concentrations of [3H]compound in 100 mM NaCl, 20 mM Tris HCl, pH 7.4 buffer containing 0.01% w/v bovine serum albumin (BSA) for 18 h. Non-specific binding was determined in the presence of 1 μM unlabelled compound. After 18 h, the reactants were filtered through GF/C glass fiber filters presoaked in 0.5% w/v polyethylene imine. Filters were washed with 15 mL ice cold 100 mM NaCl, 20 mM Tris HCl, pH7.4 buffer containing 0.25% BSA to separate bound from free ligand. [3H]compound bound to filters was quantified by liquid scintillation counting.Competitive Binding Experiments:Binding reactions were preformed in 96-well polypropylene plates at room temperature for 18 h. In 360 μL, membranes were incubated with 100 pM [3H]compound and increasing concentrations of Test Compound. Non-specific binding was defined in the presence of 1 μM unlabelled compound. Reactions were transferred and filtered through 96-well glass fiber/C filter plates presoaked with 0.5% polyethylene imine. The filtered reactions were washed 5 times with 200 μL ice cold buffer containing 0.25% BSA. Bound radioactivity was determined by liquid scintillation counting.Data Analysis: For saturation experiments, non-specific binding was subtracted from total binding to provide specific binding and these values were recalculated in terms of pmol ligand bound per mg protein. Saturation curves were constructed and dissociation constants were calculated using the single site ligand binding model: Beq=(Bmax*X)/(X+Kd), where Beq is the amount of ligand bound at equilibrium, Bmax is the maximum receptor density, Kd is the dissociation constant for the ligand, and X is the free ligand concentration. For competition studies percent inhibition was determined and IC50 values were calculated using a 4 parameter logistic model (% inhibition=(A+((B−A)/(1+((x/C)^D)))) using XLfit, where A and B are the maximal and minimum inhibition respectively, C is the IC50 concentration and D is the (Hill) slope.

Consider 14 compounds from ChEMBL document CHEMBL5727951, “Substituted benzamides and methods of use thereof” (2020).

Molecules are shown by their SMILES. pIC50: −log10 of the molar value.

As usually defined, the pIC50 is −log10 of the IC50, conventionally taken in molar units. As for `C[C@@H](c1cc(Cl)cc(Cl)c1)N1CCC(COc2ccc(C(=O)NS(=N)(=O)C3CC3)cc2C2CC2)CC1` (some centres undefined), the pIC50 is 6.21.
In the case of `C[C@@H](c1cc(Cl)cc(Cl)c1)N1CCC(COc2cc(F)c(C(=O)NS(=N)(=O)C3CC3)cc2C2CC2)CC1` (some centres undefined) it was 7.03; in that of `N=S(=O)(NC(=O)c1cc(C2CC2)c(COc2cc(F)cc(C(F)(F)F)c2)cc1F)C1CC1` (centres undefined), 7.85.
As to `CC(C)Oc1ncc(Oc2cc(F)c(C(=O)NS(=N)(=O)C3CC3)cc2Cl)cc1Cl` (centres undefined), the pIC50 was 7.74.
For `N=S(=O)(NC(=O)c1cc(C2CC2)c(OCC2(F)CCN(Cc3cc(C(F)(F)F)cc(Cl)c3F)CC2)cc1F)C1CC1` (centres undefined) the value was 6.74.
In the case of `N=S(=O)(NC(=O)c1cc(Cl)c(Oc2cnc(OCC(F)(F)F)c(Cl)c2)cc1F)C1CC1` (centres undefined) it was 7.63; in that of `N=S(=O)(NC(=O)c1cc(C2CC2)c(OCC23CC4CC(CC(C4)C2)C3)cc1F)N1CCC1` (centres undefined), 7.09; in that of `N=S(=O)(NC(=O)c1cc(C2CC2)c(O[C@@H]2CCCN(Cc3c(Cl)cccc3Cl)C2)cc1F)C1CC1` (some centres undefined), 5.64.
In the case of `N=S(=O)(NC(=O)c1cc(C2CC2)c(COc2cc(Cl)cc(OC(F)(F)F)c2)cc1F)C1CC1` (centres undefined) it was 8.06; in that of `N=S(=O)(NC(=O)c1cc(Cl)c(Oc2cnc(OCC(F)(F)C(F)F)c(Cl)c2)cc1F)N1CCC1` (centres undefined), 6.80.
As to `N=S(=O)(NC(=O)c1cc(F)c(Oc2ccc(OC(F)(F)F)c(Cl)c2)cc1F)C1CC1` (centres undefined), the pIC50 is 6.62.
Regarding `N=S(=O)(NC(=O)c1cc(Cl)c(Oc2cnc(OCC(F)(F)C(F)F)c(Cl)c2)cc1F)C1CC1` (centres undefined), the pIC50 is 7.62.
For `COc1ncccc1-c1cc(C(=O)NS(=N)(=O)C2CC2)c(F)cc1Oc1cnc(OC(C)C)c(Cl)c1` (centres undefined) the value was 7.70.
In the case of `COc1cc(C(=O)NS(=N)(=O)C2CC2)c(F)cc1OCC12CC3CC(CC(C3)C1)C2` (centres undefined) it was 6.68.
